# Measurements as given in patent US11690854B2, “Methods of treating heavy menstrual bleeding” (priority 2018, dated 2023).
# System: premenopausal women with endometriosis with associated pain
# Assay: Phase 3 Studies EM-I and EM-II together, with extension studies
# Format: in vivo, human
# Conditions: for Patients who discontinued therapy due to adverse reactions: EM-I and EM-II; for Patients with Z-score below the normal lower bound of −2.0: following 12 months of treatment; for Patients with asymptomatic elevations of serum ALT to at least 3-times the upper limit of the reference range: placebo 1/696, 0.1%
# Text: Each placebo-controlled study assessed the reduction in endometriosis-associated pain over 6 months of treatment. More than 75 percent of women who completed Study EM-I and EM-II enrolled in the extension studies for an additional 6 month treatment period. Subjects were followed for up to 12 months post-treatment. Women in these studies also provided a daily self-assessment of their endometriosis pain using the Numeric Rating Scale (NRS), on a scale ranging from 0 (no pain) to 10 (worst pain ever). […] The population age range was 18-49 years old. Women who completed six months of treatment and met eligibility criteria continued treatment in two blinded six-month extension studies, for a total treatment duration of up to 12 months. In the placebo-controlled and extension clinical studies, BMD was measured by DXA. Changes observed in BMD at other anatomical sites (femoral neck, total hip) were generally smaller than lumbar spine.
smiles,measurement,setting,value
"COc1cccc(-c2c(C)n(Cc3c(F)cccc3C(F)(F)F)c(=O)n(C[C@H](NCCCC(=O)O)c3ccccc3)c2=O)c1F [Elagolix, 4-((R)-2-[5-(2-fluoro-3-methoxy-phenyl)-3-(2-fluoro-6-trifluoromethyl-benzyl)-4-methyl-2,6-dioxo-3,6-dihydro-2H-pyrimidin-1-yl]-1-phenyl-ethylamino)-butyric acid]",Mean increase from pretreatment baseline in triglycerides,"150 mg QD, 6-month treatment",0.42 mg/dL
same,Patients who discontinued therapy due to adverse reactions,150 mg QD,5.5%
same,% Subjects with lumbar spine Z-score ≤−1.5,"150 mg QD, on treatment Month 6, N 360",0.8%
same,Mean Percent Change from baseline in lumbar spine bone mineral density,"150 mg QD, on treatment Month 6, N 360, 95% CI −0.79, −0.26",−0.52%
same,% Subjects with lumbar spine Z-score ≤−1.5,"150 mg QD, on treatment Month 12, N 235",1.3%
same,Mean Percent Change from baseline in lumbar spine bone mineral density,"150 mg QD, on treatment Month 12, N 235, 95% CI −1.29, −0.45",−0.87%
same,Estradiol level (suppression to),"150 mg QD, partial suppression",approximately 50 pg/mL
same,Patients with Z-score below the normal lower bound of −2.0,150 mg daily dose,no patient
same,Patients with asymptomatic elevations of serum ALT to at least 3-times the upper limit of the reference range,"150 mg once daily, 1/450",0.2%
same,Incidence of amenorrhea (no bleeding or spotting in a 56-day interval),"150 mg once daily, first six months of treatment, placebo less than 1%",6-17%
same,Incidence of amenorrhea (no bleeding or spotting in a 56-day interval),"150 mg once daily, second 6 months of treatment",11-15%
same,Discontinuations due to hot flush,200 mg BID,2.5%
same,Discontinuations due to nausea,200 mg BID,1.5%
same,Percentage of patients with adverse reaction: Anxiety,"200 mg BID, N = 477, placebo 3",5%
same,Percentage of patients with adverse reaction: Arthralgia,"200 mg BID, N = 477, placebo 3",5%
same,Percentage of patients with adverse reaction: Insomnia,"200 mg BID, N = 477, placebo 3",9%
same,Percentage of patients with adverse reaction: Nasopharyngitis,"200 mg BID, N = 477, placebo 4",6%
same,Percentage of patients with adverse reaction: Sinusitis,"200 mg BID, N = 477, placebo 4",6%
same,Percentage of patients with adverse reaction: Upper Respiratory Tract Infection,"200 mg BID, N = 477, placebo 5",4%
same,Percentage of patients with adverse reaction: Hot Flush,"200 mg BID, N = 477, placebo 9",45%
same,Percentage of patients with adverse reaction: Headache,"200 mg BID, N = 477, placebo 12",20%
same,Percentage of patients with adverse reaction: Nausea,"200 mg BID, N = 477, placebo 13",16%
same,Percentage of patients with adverse reaction: Amenorrhoea,"200 mg BID, N = 477, placebo <1",7%
same,Mean increase from pretreatment baseline in HDL-C,"200 mg BID, 6-month treatment",4.16 mg/dL
same,Mean increase from pretreatment baseline in LDL-C,"200 mg BID, 6-month treatment",13.10 mg/dL
same,Mean increase from pretreatment baseline in triglycerides,"200 mg BID, 6-month treatment",11.08 mg/dL
same,Patients who discontinued therapy due to adverse reactions,200 mg BID,9.6%
same,Percent change from baseline of averaged daily opioid pills (FIG. A-5),"200 mg BID, compared with placebo",significant decrease from baseline in the percent change of averaged daily opioid pills at Months 3 through 6
same,Patients with Z-score below the normal lower bound of −2.0,200 mg BID,less than 1%
same,Estradiol level (suppression to),"200 mg BID, nearly full suppression",approximately 12 pg/mL
same,% Subjects with lumbar spine Z-score ≤−1.5,"200 mg BID, on treatment Month 6, N 365",4.1%
same,Mean Percent Change from baseline in lumbar spine bone mineral density,"200 mg BID, on treatment Month 6, N 365, 95% CI −2.81, −2.28",−2.54%
same,% Subjects with lumbar spine Z-score ≤−1.5,"200 mg BID, on treatment Month 12, N 217",5.1%
same,Mean Percent Change from baseline in lumbar spine bone mineral density,"200 mg BID, on treatment Month 12, N 217, 95% CI −4.19, −3.32",−3.76%
same,"Suicidal ideation, %",200 mg Twice Daily (N = 477),(0.2) %
same,"Depressed Mood, depression, depressive symptoms and or tearfulness, %","200 mg Twice Daily (N = 477), placebo 2.3",(6.1) %
same,"Mood altered, mood swings, %","200 mg Twice Daily (N = 477), placebo 3.4",(5.2) %
same,Mean Intensity score (1 = spotting to 4 = heavy),"200 mg Twice Daily, Month 3, baseline 2.5, placebo 2.6 to 2.4",2.0
same,Mean bleeding/spotting days in prior 28 days,"200 mg Twice Daily, Month 3, baseline 5.7, placebo 5.4 to 4.6",0.8 days
same,Patients with asymptomatic elevations of serum ALT to at least 3-times the upper limit of the reference range,"200 mg twice daily, 5/443",1.1%
same,Incidence of amenorrhea (no bleeding or spotting in a 56-day interval),"200 mg twice daily, first six months of treatment, placebo less than 1%",13-52%
same,Incidence of amenorrhea (no bleeding or spotting in a 56-day interval),"200 mg twice daily, second 6 months of treatment",46-57%
same,Percentage of days in which rescue opioid medication was taken,"150 QD and 200 BID, pooled analysis, compared with placebo",significant reduction in the percentage of days in which rescue opioid medication was taken
same,Mean decreases from Baseline in dysmenorrhea scores,"both treatment groups (150 mg QD, 200 mg BID)",statistically significantly greater than placebo beginning at Month 1 and persisted through Month 6
same,BMD after stopping treatment,"both treatment groups, lumbar spine, total hip and femoral neck, post-treatment months 6 and 12",progressive recovery of BMD
same,Durability of improvement in extension studies EM-III and EM-IV,patients maintained on their dose,"durability of improvement in dysmenorrhea, NMPP and dyspareunia was demonstrated for a total of 12 months"
